Test [1] has as its target UDP-galactopyranose mutase (Mycobacterium tuberculosis) (UniProt P9WIQ1). Nature of the test: Inhibition of Mycobacterium tuberculosis UGM expressed in Escherichia coli BL21(DE3) at 500 uM by Fluorescence polarization assay relative to control. On the technique in general: Fluorescence polarisation rises when a labelled molecule tumbles more slowly, as on binding a larger partner.

The target in test [2] is UDP-galactopyranose mutase (Klebsiella pneumoniae) (UniProt Q48485). Kind of test: Inhibition of Klebsiella pneumoniae UGM expressed in Escherichia coli BL21(DE3) at 500 uM by Fluorescence polarization assay relative to control.
Test [3] addresses UDP-galactopyranose mutase (Klebsiella pneumoniae, UniProt Q48485). Kind of test: Inhibition of Klebsiella pneumoniae UGM expressed in Escherichia coli BL21(DE3) assessed as dissociation constant by fluorescence polarization assay.
In test [4] the target is T1, UDP-galactopyranose mutase (Mycobacterium tuberculosis, UniProt P9WIQ1). Nature of the test: Inhibition of Mycobacterium tuberculosis UGM expressed in Escherichia coli BL21(DE3) assessed as dissociation constant by fluorescence polarization assay.
The target of test [5] is UDP-galactopyranose mutase (Mycobacterium tuberculosis) (UniProt P9WIQ1). Kind of test: Inhibition of Mycobacterium tuberculosis UGM expressed in Escherichia coli BL21(DE3) assessed as formation of UDP-galactopyranose at 500 uM preincubated for 5 min followed by substrate addition and measured after 1 to 3 mins using UDP-galactofuranose as substrate by HPLC analysis relative to control. Particulars: time 6-8 min.

The target in test [6] is T1, UDP-galactopyranose mutase. Nature of the test: Inhibition of Mycobacterium tuberculosis UGM expressed in Escherichia coli BL21(DE3) assessed as dissociation constant by SPR analysis. Background: SPR reads the build-up and loss of mass on a sensor chip optically.

Broadly, the inhibition is the change of the read-out against control, counted positive when it falls. By Kd is commonly meant the equilibrium constant for the complex coming apart.

UDP-galactopyranose mutase (Klebsiella pneumoniae, UniProt Q48485), sequence (Q48485 whole entry): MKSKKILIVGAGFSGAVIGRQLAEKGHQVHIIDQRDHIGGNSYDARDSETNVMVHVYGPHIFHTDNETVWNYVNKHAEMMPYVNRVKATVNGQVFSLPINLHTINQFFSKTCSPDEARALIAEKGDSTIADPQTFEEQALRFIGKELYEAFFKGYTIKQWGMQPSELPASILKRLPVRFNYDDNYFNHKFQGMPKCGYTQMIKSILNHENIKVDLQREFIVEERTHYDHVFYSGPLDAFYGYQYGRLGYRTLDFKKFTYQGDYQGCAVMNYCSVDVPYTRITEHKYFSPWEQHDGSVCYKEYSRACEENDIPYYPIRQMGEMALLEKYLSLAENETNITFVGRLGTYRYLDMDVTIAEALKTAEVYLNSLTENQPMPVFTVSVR
UDP-galactopyranose mutase (Klebsiella pneumoniae), sequence (Q48485 whole entry): as above
T1 sequence (P9WIQ1 whole entry): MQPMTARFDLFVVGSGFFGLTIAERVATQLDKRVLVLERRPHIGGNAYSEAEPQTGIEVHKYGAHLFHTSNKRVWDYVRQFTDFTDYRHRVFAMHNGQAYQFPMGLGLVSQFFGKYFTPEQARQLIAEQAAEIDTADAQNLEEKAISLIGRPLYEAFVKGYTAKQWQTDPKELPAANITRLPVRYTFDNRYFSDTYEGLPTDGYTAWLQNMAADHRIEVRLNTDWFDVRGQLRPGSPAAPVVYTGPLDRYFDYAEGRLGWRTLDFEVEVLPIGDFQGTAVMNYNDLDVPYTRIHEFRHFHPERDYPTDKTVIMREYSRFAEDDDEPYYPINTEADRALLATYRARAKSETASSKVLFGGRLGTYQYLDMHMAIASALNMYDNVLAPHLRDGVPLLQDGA
UDP-galactopyranose mutase (Mycobacterium tuberculosis), sequence (P9WIQ1 whole entry, looked up): as the sequence (P9WIQ1 whole entry) above

`O=C(/C=C/c1ccccc1)N[C@@H](Cc1ccc(O)cc1)C(=O)O`: in test [1], the inhibition is 29%.

In test [1], `O=C(/C=C/c1ccc(O)c(O)c1)N[C@@H](Cc1ccc(O)cc1)C(=O)O` came in with an inhibition of 18%.

As for `O=C(/C=C/c1ccccc1)N[C@@H](Cc1ccc(I)cc1)C(=O)O`, the inhibition in test [2] turned out to be 60%; in test [1], 77%; in test [5], 54.6%. Further, the dissociation constant (Kd) is 17 µM in test [3] and 197 µM in test [4].

In the case of `O=C(/C=C/c1ccc(O)c(O)c1)O[C@H](Cc1ccc(O)c(O)c1)C(=O)O` [ROSMARINIC ACID], the values for the inhibition in test [2] and in test [1] were 46% and 48%, respectively. Further, the Kd stood at 69 µM in test [3] and 653 µM in test [4].

For the molecule `O=C(/C=C/c1ccccc1)N[C@@H](Cc1ccc([N+](=O)[O-])cc1)C(=O)O`, the inhibition in test [2] turned out to be 59%; in test [1], 62%; in test [5] it was 35.2%. The values for the equilibrium dissociation constant (Kd) in test [3] and in test [4] were 231 µM and 401 µM, respectively.

`COc1cc(/C=C/C(=O)N[C@@H](Cc2ccc(O)c(O)c2)C(=O)O)ccc1O` had an inhibition in test [1] of 19%.

With `O=C(/C=C/c1ccccc1)N[C@@H](Cc1ccc(Br)cc1)C(=O)O`, the inhibition in test [2] is 59%; in test [1] it was 82%; in test [5] it was 87%. Moreover, the Kd in test [3] is 58 µM; in test [4] it was 63 µM; in test [6] it was 105 µM.

On to `O=c1ccn([C@@H]2O[C@H](COP(=O)(O)OP(=O)(O)O)[C@@H](O)[C@H]2O)c(=O)[nH]1` [URIDINE_DIPHOSPHATE], for which the results for the inhibition in test [2], in test [1] and in test [5] were 63%, 86% and 47.6%, respectively. Further, the Kd stood at 54 µM in test [3] and 35 µM in test [4].

Take `O=C(/C=C/c1ccccc1)N[C@@H](Cc1ccccc1)C(=O)O`: the inhibition in test [2] came to 59%; in test [1], 45%. Also, the Kd in test [3] and in test [4] was over 1000 µM each time.

Regarding `O=C(/C=C/c1ccccc1)N[C@@H](Cc1ccc(Cl)cc1)C(=O)O`, the inhibition worked out at 41% in test [2], 49% in test [1] and 63.3% in test [5]. For the same molecule, the Kd in test [3] was found to be 43 µM; in test [4], 358 µM.

Consider `O=C(/C=C/c1ccccc1)N[C@@H](Cc1ccc(F)cc1)C(=O)O`, for which the inhibition in test [2] was found to be 58%; in test [1] it was 46%. For the same molecule, the Kd in test [3] came out at 156 µM; in test [4], 948 µM.

For the origin of these results see ChEMBL document CHEMBL5113462, “Synthesis and evaluation of inhibitors of Mycobacterium tuberculosis UGM using bioisosteric replacement” (Bioorg Med Chem, 2022).
